Experimental data reported in patent US20230085307A1, “PYRIDAZINONE COMPOUND AND HERBICIDE” (NISSAN CHEMICAL CORPORATION, priority 2019, published 2023).

How the values were obtained:
[1] = test system: redroot pigweed; assay: Test Example 5: herbicidal effect by foliage application, plastic box (Table 20, symbol N); format: in vivo, redroot pigweed (Amaranthus retroflexus); conditions: foliage application, three weeks after application
Summary of the method: (§1)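 Plants sown in sterilized diluvial soil and grown 14 days in a greenhouse at 25° C to 30° C, then sprayed on the foliage with the compound's emulsion diluted in water to a predetermined herbicide amount. Injury to weeds and crops scored three weeks after application on a visual rating scale.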

[2] = test system: chickweed; assay: Test Example 5: herbicidal effect by foliage application, plastic box (Table 20, symbol P); format: in vivo, common chickweed (Stellaria media); conditions: foliage application, three weeks after application
Summary of the method: as §1

[3] = test system: late watergrass; assay: Test Example 2: herbicidal activity, application during weed generation under submerged conditions (Table 17, symbol A); format: in vivo, late watergrass (Echinochloa oryzicola); conditions: application during weed generation, submerged conditions
Summary of the method: (§2)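 Effect on each weed is rated three weeks post-treatment, using the same scoring criteria as the preceding test. Plants grow from mixed-sown seed in flooded alluvial soil (4 cm water) at 25° C. to 30° C., and are treated at one to two leaves with diluted emulsion dropped onto the water.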

[4] = test system: late watergrass; assay: Test Example 1: herbicidal activity, application before weed generation under submerged conditions (Table 16, symbol A); format: in vivo, late watergrass (Echinochloa oryzicola)
Summary of the method: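 Submerged Wagner pots (alluvial soil, 4 cm water) sown with weed seeds and planted with 2.5-leaf rice seedlings; emulsifiable concentrate diluted in water applied to water surface on sowing day. Held in greenhouse at 25-30 °C; injury scored 0-5 by herbicidal rate after three weeks.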

[5] = test system: false cleavers; assay: Test Example 5: herbicidal effect by foliage application, plastic box (Table 20, symbol Q); format: in vivo, false cleavers (Galium spurium); conditions: foliage application, three weeks after application
Summary of the method: as §1

[6] = test system: Italian ryegrass; assay: Test Example 5: herbicidal effect by foliage application, plastic box (Table 20, symbol K); format: in vivo, Italian ryegrass (Lolium multiflorum); conditions: foliage application, three weeks after application
Summary of the method: as §1

[7] = test system: blackgrass; assay: Test Example 4: herbicidal effect by soil treatment (Table 19, symbol J); format: in vivo, blackgrass (Alopecurus myosuroides)
Summary of the method: (§3)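 Seeds were sown in sterilized diluvial soil and covered with about 1.5 cm of soil. An emulsion formulation diluted with water to a predetermined herbicide amount was sprayed evenly onto the soil surface. Plants grew in a greenhouse at 25° C. to 30° C., and the effect was scored three weeks after application using criteria from an earlier test.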

[8] = test system: blackgrass; assay: Test Example 5: herbicidal effect by foliage application, plastic box (Table 20, symbol J); format: in vivo, blackgrass (Alopecurus myosuroides); conditions: foliage application, three weeks after application
Summary of the method: as §1

[9] = test system: chickweed; assay: Test Example 4: herbicidal effect by soil treatment (Table 19, symbol P); format: in vivo, common chickweed (Stellaria media)
Summary of the method: as §3

[10] = test system: false cleavers; assay: Test Example 4: herbicidal effect by soil treatment (Table 19, symbol Q); format: in vivo, false cleavers (Galium spurium)
Summary of the method: as §3

[11] = test system: Italian ryegrass; assay: Test Example 4: herbicidal effect by soil treatment (Table 19, symbol K); format: in vivo, Italian ryegrass (Lolium multiflorum)
Summary of the method: as §3

[12] = test system: southern crabgrass; assay: Test Example 5: herbicidal effect by foliage application, plastic box (Table 20, symbol F); format: in vivo, southern crabgrass (Digitaria ciliaris); conditions: foliage application, three weeks after application
Summary of the method: as §1

[13] = test system: wild oat; assay: Test Example 4: herbicidal effect by soil treatment (Table 19, symbol I); format: in vivo, wild oat (Avena fatua)
Summary of the method: as §3

[14] = test system: persian speedwell; assay: Test Example 4: herbicidal effect by soil treatment (Table 19, symbol R); format: in vivo, Persian speedwell (Veronica persica)
Summary of the method: as §3

[15] = test system: lambsquarters; assay: Test Example 4: herbicidal effect by soil treatment (Table 19, symbol O); format: in vivo, lambsquarters (Chenopodium album)
Summary of the method: as §3

[16] = test system: oval-leafed pondweed; assay: Test Example 2: herbicidal activity, application during weed generation under submerged conditions (Table 17, symbol C); format: in vivo, oval-leafed pondweed (Monochoria vaginalis); conditions: application during weed generation, submerged conditions
Summary of the method: as §2

[17] = test system: Japanese bulrush; assay: Test Example 2: herbicidal activity, application during weed generation under submerged conditions (Table 17, symbol B); format: in vivo, Japanese bulrush (Schoenoplectus juncoides); conditions: application during weed generation, submerged conditions
Summary of the method: as §2

[18] = test system: velvetleaf; assay: Test Example 5: herbicidal effect by foliage application, plastic box (Table 20, symbol M); format: in vivo, velvetleaf (Abutilon theophrasti); conditions: foliage application, three weeks after application
Summary of the method: as §1

[19] = test system: corn; assay: Test Example 4: effect on crop by soil treatment (Table 19, symbol c); format: in vivo; conditions: amount of applied herbicide 320 g/ha
Summary of the method: as §3

[20] = test system: soybean; assay: Test Example 5: effect on crop by foliage application, plastic box (Table 20, symbol d); format: in vivo; conditions: 320 g/ha, three weeks after application
Summary of the method: as §1

[21] = test system: corn; assay: Test Example 5: effect on crop by foliage application, plastic box (Table 20, symbol c); format: in vivo; conditions: 320 g/ha, three weeks after application
Summary of the method: as §1

[22] = amount of applied herbicide 320 g/ha
[23] = amount of applied herbicide 296 g/ha

| Compound | N: redroot pigweed, herbicidal effect grade ([1]; 320 g/ha) | P: chickweed, herbicidal effect grade ([2]; 320 g/ha) | herbicidal effect rating, A: late watergrass ([3]; AAH 320 g/ha) | Herbicidal effect, A: late watergrass [4, 22] | Q: false cleavers, herbicidal effect grade ([5]; 320 g/ha) | K: Italian ryegrass, herbicidal effect grade ([6]; 320 g/ha) | J: blackgrass, herbicidal effect grade [7, 22] | J: blackgrass, herbicidal effect grade ([8]; 320 g/ha) | P: chickweed, herbicidal effect grade [9, 22] | Q: false cleavers, herbicidal effect grade [10, 22] | K: Italian ryegrass, herbicidal effect grade [11, 22] | F: southern crabgrass, herbicidal effect grade ([12]; 320 g/ha) | I: wild oat, herbicidal effect grade [13, 22] | R: persian speedwell, herbicidal effect grade [14, 22] | O: lambsquarters, herbicidal effect grade [15, 22] | herbicidal effect rating, C: oval-leafed pondweed ([16]; AAH 320 g/ha) | herbicidal effect rating, B: Japanese bulrush ([17]; AAH 320 g/ha) | M: velvetleaf, herbicidal effect grade ([18]; 320 g/ha) | other results |
| --- | --- | --- | --- | --- | --- | --- | --- | --- | --- | --- | --- | --- | --- | --- | --- | --- | --- | --- | --- |
| CCCC(=O)Oc1c(C)nn(C)c(=O)c1-c1c(-c2ccc(OC)cc2)sc2cc(OCC)ccc12 [3-092] | 5 (Herbicidal rate of 90% or more (almost completely withered)) | 5 (Herbicidal rate of 90% or more (almost completely withered)) | 0 (Herbicidal rate of 5% or less (almost no effect)) | 0 (Herbicidal rate of 5% or less (almost no effect)) | 4 (Herbicidal rate of 70% or more and less than 90%) | 0 (Herbicidal rate of 5% or less (almost no effect)) | 0 (Herbicidal rate of 5% or less (almost no effect)) | 0 (Herbicidal rate of 5% or less (almost no effect)) | 5 (Herbicidal rate of 90% or more (almost completely withered)) | 4 (Herbicidal rate of 70% or more and less than 90%) | 0 (Herbicidal rate of 5% or less (almost no effect)) | 0 (Herbicidal rate of 5% or less (almost no effect)) | 0 (Herbicidal rate of 5% or less (almost no effect)) | 5 (Herbicidal rate of 90% or more (almost completely withered)) | 4 (Herbicidal rate of 70% or more and less than 90%) | 3 (Herbicidal rate of 40% or more and less than 70%) | 1 (Herbicidal rate of 5% or more and less than 20%) | 5 (Herbicidal rate of 90% or more (almost completely withered)) |  |
| CCOc1ccc2c(-c3c(O)c(C)nn(C)c3=O)c(-c3ccc(F)cc3OCC)sc2c1 [3-095] | 5 (Herbicidal rate of 90% or more (almost completely withered)) | 5 (Herbicidal rate of 90% or more (almost completely withered)) | 4 (Herbicidal rate of 70% or more and less than 90%) | 5 (Herbicidal rate of 90% or more (almost completely withered)) | 5 (Herbicidal rate of 90% or more (almost completely withered)) | 5 (Herbicidal rate of 90% or more (almost completely withered)) | 4 (Herbicidal rate of 70% or more and less than 90%) | 4 (Herbicidal rate of 70% or more and less than 90%) | 4 (Herbicidal rate of 70% or more and less than 90%) | 4 (Herbicidal rate of 70% or more and less than 90%) | 2 (Herbicidal rate of 20% or more and less than 40%) | 5 (Herbicidal rate of 90% or more (almost completely withered)) | 3 (Herbicidal rate of 40% or more and less than 70%) | 5 (Herbicidal rate of 90% or more (almost completely withered)) | 5 (Herbicidal rate of 90% or more (almost completely withered)) | 5 (Herbicidal rate of 90% or more (almost completely withered)) | 5 (Herbicidal rate of 90% or more (almost completely withered)) | 5 (Herbicidal rate of 90% or more (almost completely withered)) |  |
| CCCC(=O)Oc1c(C)nn(C)c(=O)c1-c1c(-c2ccccc2OC)sc2cc(OC)ccc12 [Compound No. 3-066, 5-(6-methoxy-2-(2-methoxyphenyl)benzo[b]thiophen-3-yl)-1,3-dimethyl-6-oxo-1,6-dihydropyridazin-4-yl=(n-butyrate)] |  |  |  |  |  |  |  |  |  |  |  |  |  |  |  |  |  |  | N: redroot pigweed, herbicidal effect grade ([1]; 296 g/ha): 5 (Herbicidal rate of 90% or more (almost completely withered)); P: chickweed, herbicidal effect grade ([2]; 296 g/ha): 5 (Herbicidal rate of 90% or more (almost completely withered)); herbicidal effect rating, A: late watergrass ([3]; AAH 296 g/ha): 3 (Herbicidal rate of 40% or more and less than 70%); Herbicidal effect, A: late watergrass [4, 23]: 5 (Herbicidal rate of 90% or more (almost completely withered)); Q: false cleavers, herbicidal effect grade ([5]; 296 g/ha): 0 (Herbicidal rate of 5% or less (almost no effect)); K: Italian ryegrass, herbicidal effect grade ([6]; 296 g/ha): 4 (Herbicidal rate of 70% or more and less than 90%); J: blackgrass, herbicidal effect grade [7, 23]: 3 (Herbicidal rate of 40% or more and less than 70%); J: blackgrass, herbicidal effect grade ([8]; 296 g/ha): 4 (Herbicidal rate of 70% or more and less than 90%); P: chickweed, herbicidal effect grade [9, 23]: 4 (Herbicidal rate of 70% or more and less than 90%); Q: false cleavers, herbicidal effect grade [10, 23]: 2 (Herbicidal rate of 20% or more and less than 40%); K: Italian ryegrass, herbicidal effect grade [11, 23]: 4 (Herbicidal rate of 70% or more and less than 90%); F: southern crabgrass, herbicidal effect grade ([12]; 296 g/ha): 4 (Herbicidal rate of 70% or more and less than 90%); I: wild oat, herbicidal effect grade [13, 23]: 2 (Herbicidal rate of 20% or more and less than 40%); R: persian speedwell, herbicidal effect grade [14, 23]: 3 (Herbicidal rate of 40% or more and less than 70%); O: lambsquarters, herbicidal effect grade [15, 23]: 0 (Herbicidal rate of 5% or less (almost no effect)); herbicidal effect rating, C: oval-leafed pondweed ([16]; AAH 296 g/ha): 5 (Herbicidal rate of 90% or more (almost completely withered)); herbicidal effect rating, B: Japanese bulrush ([17]; AAH 296 g/ha): 4 (Herbicidal rate of 70% or more and less than 90%); M: velvetleaf, herbicidal effect grade ([18]; 296 g/ha): 4 (Herbicidal rate of 70% or more and less than 90%) |
| COc1ccc(-c2oc3ccc(F)cc3c2-c2c(O)c(C)nn(C)c2=O)cc1 [Compound No. 9-020, 4-(5-fluoro-2-(4-methoxyphenyl)benzofuran-3-yl)-5-hydroxy-2,6-dimethylpyridazin-3(2H)-one] |  |  | 3 (Herbicidal rate of 40% or more and less than 70%) | 5 (Herbicidal rate of 90% or more (almost completely withered)) |  |  | 3 (Herbicidal rate of 40% or more and less than 70%) |  | 4 (Herbicidal rate of 70% or more and less than 90%) |  | 5 (Herbicidal rate of 90% or more (almost completely withered)) |  | 2 (Herbicidal rate of 20% or more and less than 40%) | 5 (Herbicidal rate of 90% or more (almost completely withered)) | 0 (Herbicidal rate of 5% or less (almost no effect)) | 3 (Herbicidal rate of 40% or more and less than 70%) | 3 (Herbicidal rate of 40% or more and less than 70%) |  | c: corn, effect on crop grade [19]: 0 (Herbicidal rate of 5% or less (almost no effect)); effect on crop soybean (d) [20]: 3 (Herbicidal rate of 40% or more and less than 70%); melting point: 248 to 250 °C; effect on crop corn (c) [21]: 0 (Herbicidal rate of 5% or less (almost no effect)); herbicidal effect on Italian ryegrass (K) ([6]; 320 g/ha): 4 (Herbicidal rate of 70% or more and less than 90%); herbicidal effect on blackgrass (J) ([8]; 320 g/ha): 4 (Herbicidal rate of 70% or more and less than 90%); herbicidal effect on southern crabgrass (F) ([12]; 320 g/ha): 4 (Herbicidal rate of 70% or more and less than 90%); herbicidal effect on velvetleaf (M) ([18]; 320 g/ha): 5 (Herbicidal rate of 90% or more (almost completely withered)) |
